Measured values reported in ChEMBL document CHEMBL1201862, “PubChem BioAssay data set” (2004).
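Compound exposure: 48 hours, 5 concentrations, 96-well plates. GI50 marks 50% less growth.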 Calls of active or inactive are those of the source. No stated cut-off is given here; in the data, active = GI50 up to about 1.1 µM and inactive = higher.

What was measured:
Assay in all cases: inhibition of tumour cell growth, NCI panel, 48 h
DMS-273 = system: DMS-273
XF498 = system: XF498
LXFL 529 = system: LXFL 529
SNB-78 = system: SNB-78
HOP-18 = system: HOP-18
KM-20L2 = system: KM-20L2
DMS-114 = system: DMS-114
MDA-N = system: MDA-N
RXF 631 = system: RXF 631

| SMILES | GI50 (DMS-273) | GI50 (LXFL 529) | GI50 (SNB-78) | GI50 (KM-20L2) | GI50 (DMS-114) | GI50 (MDA-N) | further results |
| --- | --- | --- | --- | --- | --- | --- | --- |
| CCOC(OC1=C(C#N)CCCC1)C(CC)[Se]c1ccccc1[N+](=O)[O-] (configuration not stated) | 20.9 µM (inactive) | 26.5 µM (inactive) | 25.5 µM (inactive) | 17.2 µM (inactive) | 15.7 µM (inactive) |  | GI50 (XF498): 30.2 µM (inactive); GI50 (HOP-18): 26.5 µM (inactive) |
| CN1Cc2cc(O)c(O)cc2C(O)C1 (configuration not stated) |  |  |  |  |  | 55.2 µM (inactive) |  |
| CC1(n2nc(-c3ccccc3)n(-c3ccccc3)c2=O)CSC1 | 82.4 µM (inactive) | > 100 µM (inactive) | > 100 µM (inactive) | > 100 µM (inactive) | 69.5 µM (inactive) |  | GI50 (XF498): 58.9 µM (inactive) |
| O=C1/C(=C/c2cccc([N+](=O)[O-])c2)CCCc2ccccc21 |  |  |  |  |  | 9.33 µM (inactive) |  |
| c1ccc2c(c1)CCCN1CCc3ccccc3C21 (configuration not stated) |  |  |  |  |  | 27 µM (inactive) |  |
| CCCCCCCCCCCCCCCCCCNc1ccn(C2OC(COP(=O)(O)OCC3OC(n4cc(C)c(=O)[nH]c4=O)CC3O)C(O)C2O)c(=O)n1 (configuration not stated) |  |  |  |  |  | 18.4 µM (inactive) |  |
| c1ccc(-c2nnc(-c3ccccn3)c3c2C[C@@H]2C[C@@H]4Cc5c(-c6ccccn6)nnc(-c6ccccn6)c5[C@@H]4[C@H]32)nc1 |  |  |  |  |  | 46.6 µM (inactive) |  |
| COc1ccc(S(=O)(=O)N/N=C(\C)CN2C(=O)c3ccccc3C2=O)cc1 | > 100 µM (inactive) | > 100 µM (inactive) | > 100 µM (inactive) | > 100 µM (inactive) | > 100 µM (inactive) |  | GI50 (HOP-18): > 100 µM (inactive); GI50 (RXF 631): > 100 µM (inactive) |
| CN1OC(=O)N(C)C1c1ccccc1 (configuration not stated) | > 100 µM (inactive) |  | > 100 µM (inactive) | > 100 µM (inactive) | > 100 µM (inactive) |  | GI50 (XF498): > 100 µM (inactive); GI50 (HOP-18): > 100 µM (inactive) |
| C[N+]1(CCCC[N+]2(C)CCCCCCC2)CCCCCCC1 |  |  |  |  |  | > 100 µM (inactive) |  |
| CCOC(=O)NNC(=O)NCCCCNC(=O)NNC(=O)OCC |  |  |  |  |  | > 100 µM (inactive) |  |
| CN(C)CCC(/C=C/c1ccccc1)=N\Nc1c(F)c(F)c(F)c(F)c1F | 36.8 µM (inactive) | 77.8 µM (inactive) | 50.9 µM (inactive) |  | 21.7 µM (inactive) |  | GI50 (HOP-18): 44.1 µM (inactive) |
| CCOC(=O)c1c(SCc2ccccc2)nc2c3ccccc3ccn12 |  |  |  |  |  | > 100 µM (inactive) |  |
| COc1cc(/C=C2/SC(c3ccccc3)N(c3cccc(Cl)c3)C2=O)cc(OC)c1OC (configuration not stated) |  |  |  |  |  | 16.3 µM (inactive) |  |
| O=P(Nc1cccc(Cl)c1)(Oc1ccccc1)N(CCCl)CCCl (configuration not stated) | 13.6 µM (inactive) | 11.7 µM (inactive) | 18.3 µM (inactive) | 13.3 µM (inactive) | 12.7 µM (inactive) |  | GI50 (HOP-18): 24.9 µM (inactive) |
| CC1(C)CC(C2=NCCO2)CC(C)(C)N1 |  |  |  |  |  | > 100 µM (inactive) |  |
| Cn1c(=O)n(CC2CS2)c2ccccc21 (configuration not stated) | > 100 µM (inactive) | > 100 µM (inactive) |  | > 100 µM (inactive) | 50.9 µM (inactive) |  | GI50 (XF498): > 100 µM (inactive) |
| CS/C(=N\c1ccccc1)N(c1ccccc1)c1nc(=[N+](C)C)ss1.[O-][Cl+3]([O-])([O-])[O-] | 0.166 µM (active) |  | 5.06 µM (inactive) | 1.06 µM (active) | 0.0486 µM (active) |  |  |
| CS(=O)(=O)c1nc(-c2cc3c(c(S(C)(=O)=O)n2)CCC3)cc2c1CCCCC2 |  |  |  |  |  | > 100 µM (inactive) |  |
| Cc1cc(O)nc(NNC(C#N)c2cccc(O)c2)n1 (configuration not stated) | > 100 µM (inactive) | > 100 µM (inactive) | > 100 µM (inactive) | > 100 µM (inactive) | > 100 µM (inactive) |  | GI50 (HOP-18): 86.7 µM (inactive) |
| COC(=O)c1ccc(C)cc1C1CN=NC12Cc1c(C)cccc1C2=O (configuration not stated) |  |  |  |  |  | 37.5 µM (inactive) |  |
| O=c1[nH]cnc2c1ncn2[C@H]1CO[C@@H](CO)[C@@H]1O |  |  |  |  |  | > 100 µM (inactive) |  |
| CCOC(=O)NC(C(F)(F)F)(C(F)(F)F)P(=O)(OC(C)C)OC(C)C |  |  |  |  |  | > 100 µM (inactive) |  |
| Cc1ccc(S(=O)(=O)n2cc(-c3cc(C(F)(F)F)ccn3)c3cc(Br)ccc32)cc1 |  |  |  |  |  | 45.2 µM (inactive) |  |
| O=C1C(Cl)C(c2cc3cc(Br)ccc3nc2Cl)N1c1c(Cl)cccc1Cl (configuration not stated) |  |  |  |  |  | 9.68 µM (inactive) |  |
| O=C(c1ccc(O)cc1O)C1C(c2ccc(O)cc2)OC(c2ccc(O)cc2)C1C(=O)c1ccc(O)cc1O (configuration not stated) | 16 µM (inactive) | 17.3 µM (inactive) | 19.1 µM (inactive) | 71 µM (inactive) |  |  | GI50 (XF498): 15.5 µM (inactive) |
| CC(=O)OCCCC(NC(=O)OC(C)(C)C)C(=O)NC(CCCOC(C)=O)C(=O)NC(Cc1ccc([N+](=O)[O-])cc1)C(=O)NCC(=O)OCc1ccccc1 (configuration not stated) |  |  |  |  |  | 15.3 µM (inactive) |  |
| O=Cc1cn(C(=O)c2ccccc2)c2ccccc12 | > 100 µM (inactive) | 51.3 µM (inactive) | 36.9 µM (inactive) | > 100 µM (inactive) | 60.1 µM (inactive) |  |  |
| O=C(N/N=C(/c1ccccc1)C(F)(F)F)c1ccncc1 |  |  |  |  |  | > 100 µM (inactive) |  |
| COc1ccc(C2Oc3cc(OC)c(O)cc3[C@@H]2C)cc1 (some centres not stated) | 29.4 µM (inactive) | 17.5 µM (inactive) | > 100 µM (inactive) | 49.5 µM (inactive) | 18.7 µM (inactive) |  | GI50 (XF498): 16.9 µM (inactive); GI50 (HOP-18): 5.05 µM (inactive) |
